Measured values published in patent US9636409B2, “Enzyme and receptor modulation using covalent conjugates of alpha,alpha-disubstituted glycine esters” (GlaxoSmithKline Intellectual Property Development Limited, priority 2008, dated 2017).
Like-named read-outs stand apart in the source and are kept apart here.

What was measured:
recombinant hCE-1 = target: T1, recombinant hCE-1 (Homo sapiens, UniProt P23141); assay: HCE-1 carboxylesterase assay; type: in vitro ADME; conditions: result in words
T1 sequence (P23141 18-567): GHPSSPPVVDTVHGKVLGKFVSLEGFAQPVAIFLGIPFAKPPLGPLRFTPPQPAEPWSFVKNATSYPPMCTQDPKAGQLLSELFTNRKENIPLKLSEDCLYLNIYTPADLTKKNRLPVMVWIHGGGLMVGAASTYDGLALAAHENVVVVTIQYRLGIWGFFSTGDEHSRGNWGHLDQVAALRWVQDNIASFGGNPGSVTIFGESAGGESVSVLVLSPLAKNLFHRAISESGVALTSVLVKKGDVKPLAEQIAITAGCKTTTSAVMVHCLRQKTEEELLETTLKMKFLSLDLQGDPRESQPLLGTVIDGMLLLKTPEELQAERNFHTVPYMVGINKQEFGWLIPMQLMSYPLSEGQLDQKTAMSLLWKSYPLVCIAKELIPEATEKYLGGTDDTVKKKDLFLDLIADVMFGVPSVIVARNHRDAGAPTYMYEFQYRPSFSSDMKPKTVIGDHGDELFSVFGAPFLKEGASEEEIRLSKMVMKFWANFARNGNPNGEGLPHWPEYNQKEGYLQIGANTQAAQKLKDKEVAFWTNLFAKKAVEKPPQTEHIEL
Procedure: HCE-1 Carboxylesterase Assay
Hydrolysis of esters to the corresponding carboxylic acids by hCE-1 can be measured using the following procedure. At zero time, 100 μl of recombinant hCE-1 at a concentration of 6 μg/mL in phosphate assay buffer (K2PO4 100 mM, KCl 40 mM, pH 7.4) was added to an equal volume of assay buffer containing 5 μM ester substrate. After thorough mixing, triplicate samples were incubated for 0, 20 or 80 minutes at 37° C. At the appropriate time, hydrolysis was stopped by the addition of 600 μl of acetonitrile. For zero time samples, the acetonitrile was added prior to the enzyme. The samples were analysed for the ester and its corresponding carboxylic acid at room temperature by LCMS (Sciex API 3000, HP1100 binary pump, CTC PAL). Chromatography was based on a […] (75×2.1 mm) column and a mobile phase of 5-95% acetonitrile in water/0.1% formic add. Levels of the acid, the hydrolysis product, after 80 minutes are expressed in ng/mL.

[1] = target: histone deacetylase activity (HeLa nuclear extract); assay: Histone deacetylase activity (Fluor de Lys, HeLa nuclear extract); type: biochemical; conditions: read-out: Inhibition of HDAC (IC50 nM)
Procedure: Histone Deacetylase Activity
The ability of compounds to inhibit histone deacetylase activities was measured using the commercially available HDAC fluorescent activity assay from Biomol. In brief, the Fluor de Lys™ substrate, a lysine with an epsilon-amino acetylation, is incubated with the source of histone deacetylase activity (HeLa nuclear extract) in the presence or absence of inhibitor. Deacetylation of the substrate sensitises the substrate to Fluor de Lys™ developer, which generates a fluorophore. Thus, incubation of the substrate with a source of HDAC activity results in an increase in signal that is diminished in the presence of an HDAC inhibitor.
Data are expressed as a percentage of the control, measured in the absence of inhibitor, with background signal being subtracted from all samples, as follows: % activity=[(S^i−B)/(S^o−B)]×100 where S^i is the signal in the presence of substrate, enzyme and Inhibitor, S^o is the signal in the presence of substrate, enzyme and the vehicle in which the inhibitor is dissolved, and B is the background signal measured in the absence of enzyme.
IC50 values were determined by non-linear regression analysis, after fitting the results of eight data points to the equation for sigmoidal dose response with variable slope (% activity against log concentration of Compound), using Graphpad Prism software.
Histone deacetylase activity from crude nuclear extract derived from HeLa cells was used for screening. The preparation, purchased from 4C (Seneffe, Belgium), was prepared from HeLa cells harvested whilst in exponential growth phase. The nuclear extract was prepared according to the methodology described by J. D. Dignam, Nucl. Acid. Res., 1983, 11, 1475-1489, snap frozen in liquid nitrogen and stored at −80° C. The final buffer composition was 20 mM Hepes, 100 mM KCl, 0.2 mM EDTA, 0.5 mM DTT, 0.2 mM PMSF and 20% (v/v) glycerol.

HUT 78 cells = assay: HUT cell inhibition assay (WST-1 proliferation); type: cell-based; conditions: Table 5; for Ratio IC50s in HUT 78 to U937 cells: proliferation IC50s
Procedure: (§1) U937 and HUT Cell Inhibition Assay
(§2) Cancer cell lines (U937 and HUT) growing in log phase were harvested and seeded at 1000-2000 cells/well (100 μl final volume) into 96-well tissue culture plates. Following 24 hours of growth cells were treated with compound. Plates were then re-Incubated for a further 72-96 hours before a WST-1 cell viability assay was conducted according to the suppliers (Roche Applied Science) instructions.
(§3) Data were expressed as a percentage inhibition of the control, measured in the absence of Inhibitor, as follows: % inhibition=100−[(S^i/S^o)×100] where S^i is the signal in the presence of Inhibitor and S^o s the signal in the presence of DMSO.
(§4) Dose response curves were generated from 8 concentrations (top final concentration 10 μM, with 3-fold dilutions), using 6 replicates.
(§5) IC50 values were determined by non-linear regression analysis, after fitting the results to the equation for sigmoidal dose response with variable slope (% activity against log concentration of compound), using Graphpad Prism software.

U937 cells = assay: U937 cell inhibition assay (WST-1 proliferation); type: cell-based; conditions: for Ratio cell IC50s to enzyme IC50: U937 proliferation IC50 to HDAC enzyme IC50
Procedure: as §1, §2, §3, §4, §5

[2] = system: phosphorylation of MAPKAP-2 in HUT 78 cells; assay: p38 MAP Kinase cellular assay: inhibition of phosphorylation of MAPKAP2 in HUT 78 cells; type: cell-based; conditions: Table 3; for IC50: Homo sapiens, HuT78, HUT 78 non-monocyte cell line; for Ratio IC50s in HUT 78 to U937 cells: MAPKAP-2 phosphorylation IC50s
Procedure: (§6) p38 MAP Kinase Cellular Assay: Inhibition of Phosphorylation of MAPKAP2
(§7) U937 or HUT78 cells were plated in RPMI 1640, and were incubated at 37° C., 5% CO2 for 18 hours. 10 mM stocks of compounds were diluted media/0.1% DMSO to give a log or semi-log dilution series. The wells for ‘no treatment’ and ‘anisomycin’ were treated with 0.1% DMSO only. The cells were incubated at 37° C., 5% CO2 for a further 4 hours. Anisomycin was added to all wells except ‘no treatment’ at a final concentration of 10 μM. The cells were incubated at 37° C., 5% CO2 for 30 minutes before harvest. Plates were stood on ice whilst harvesting, and all following steps were carried out at 4° C. The cells were pelleted at 1000 rpm for 10 minutes at 4° C., the media aspirated, and the pellet washed with cold PBS. The pellets were lysed in 120 μl of SDS lysis buffer (62.5 mM Tris, pH 6.8, 2% SDS, 10% glycerol, 50 mM DTT, with protease inhibitors and phosphatase inhibitors added according to the manufacturers' recommendations). After 30 minutes on ice, the samples were sonicated for 5 seconds before centrifugation at 13,000 rpm 4° C. for 10 minutes to remove cell debris. 10 μl of the resulting gel samples were loaded per lane on NOVEX 4-12% Bis-Tris MOPS gels. Membranes from western transfer of gels were blotted with anti-phospho MAPKAP2, anti-phospho HSP27 and anti GAPDH according to the manufacturers' Instructions. Signal was visualised using HRP-Hnked anti-rabbit or anti-mouse antibodies, ECL reagent and ECL film. IC50 values for the various compounds were visualised from the resulting photographic images, using both band-shift and signal intensity.

[3] = system: phosphorylation of MAPKAP-2 in U937 cells; assay: p38 MAP Kinase cellular assay: inhibition of phosphorylation of MAPKAP2 in U937 cells; type: cell-based; conditions: Homo sapiens, U-937; Table 3; U937 monocyte cell line; read-out: Inhibition of phosphorylation of MAPKAP-2 in U937 cells (IC50, nM) (monocyte cell line)
Procedure: as §6, §7

[4] = Table 4, compound as such, Ester for Examples 7 and 9
[5] = Table 5, compound as such, Ester for Examples 7 and 9

Q: For O=C(CCc1ccc(CNC2(C(=O)OC3CCCC3)CCCC2)cc1)NO [Example 7, Cyclopentyl 1-({4-[3-(hydroxyamino)-3-oxopropyl]benzyl}amino)cyclopentanecarboxylate], which “hydrolysis by hCE-1” value (recombinant hCE-1) is on record?
A: Its value is “hydrolysed by hCE-1”.

Q: And the IC50 ([1]; Table 4, Acid = carboxylic acid hydrolysis product of the ester)?
A: The IC50 was 6120 nM.

Q: And the IC50 [1, 4]?
A: The IC50 was 4200 nM.

Q: And the IC50 ([1]; Table 5, Acid = carboxylic acid hydrolysis product of the ester)?
A: Its IC50 is 6120 nM.

Q: What about the IC50 [1, 5] of the same compound?
A: Its IC50 is 4200 nM.

Q: What about the IC50 (HUT 78 cells; Homo sapiens, HuT78, HUT 78 cells) of the same compound?
A: Its IC50 is 6200 nM.

Q: And the “Ratio IC50s in HUT 78 to U937 cells” value (HUT 78 cells)?
A: Its value is 34.

Q: And the IC50 (U937 cells; Homo sapiens, U-937, Table 4, head prints no unit, same values in Table 5 as IC50 nM, read-out: Inhibition of proliferation in U937 cells)?
A: Its IC50 is 180 nM.

Q: What about the IC50 (U937 cells; Homo sapiens, U-937, Table 5, U937 cells, read-out: Inhibition of proliferation in U937 cells (IC50 nM)) of the same compound?
A: The IC50 was 180 nM.

Q: What about the “Ratio cell IC50s to enzyme IC50” value (U937 cells; Table 4) of the same compound?
A: The value was 0.043.

Q: What about the “potency in monocytic (U937) versus non monocytic (Hut78) cell lines (proliferation)” value (U937 cells; U937 versus Hut78) of the same compound?
A: The value was 30 times.

Q: And the “potency in the cellular (U937 proliferation) assay compared with the parent compound” value (U937 cells; versus Compound IV)?
A: The value was “significantly more potent than the parent compound”.

Q: For Nc1c(C(=O)c2ccc(F)cc2F)ccc(=O)n1-c1c(F)cccc1F [Compound II, reference compound], which IC50 [2] is on record?
A: Its IC50 is 10 nM.

Q: And the “Ratio IC50s in HUT 78 to U937 cells” value [2]?
A: The value was 1.

Q: And the IC50 [3]?
A: The IC50 was 10 nM.

Q: How did the IC50 [1, 4] turn out when O=C(CCc1ccccc1)NO [Compound IV, N-Hydroxy-3-phenyl-propionamide, reference compound] was run?
A: Its IC50 is 2600 nM.

Q: What about the IC50 [1, 5] of the same compound?
A: Its IC50 is 2600 nM.

Q: And the inhibition at 10 µM (HUT 78 cells; Homo sapiens, HuT78, @ 10 μM)?
A: Its inhibition at 10 µM is 10%.

Q: What about the “Ratio IC50s in HUT 78 to U937 cells” value (HUT 78 cells) of the same compound?
A: The value was roughly 1.

Q: What about the inhibition at 10 µM (U937 cells; Homo sapiens, U-937, Table 4, @ 10 μM) of the same compound?
A: Its inhibition at 10 µM is 13%.

Q: What about the “Ratio cell IC50s to enzyme IC50” value (U937 cells; Table 4) of the same compound?
A: Its value is greater than 3.85.

Q: And the “Inhibition of proliferation in U937 cells” value (U937 cells; Table 5, @ 10 μM)?
A: The value was 13% @ 10 μM.

Q: Which results are given for Nc1c(C(=O)c2ccc(F)cc2F)ccc(=O)n1-c1c(F)cc(OCCC[C@H](N)C(=O)OC2CCCC2)cc1F [Compund III, reference compound]?
A: IC50 [2]: 1 nM; Ratio IC50s in HUT 78 to U937 cells [2]: 1; IC50 [3]: 1 nM
